Source: patent US20150011528A1, “PHENYLIMIDE-CONTAINING BENZOTHIAZOLE DERIVATIVE OF ITS SALT AND PHARMACEUTICAL COMPOSITION COMPRISING THE SAME” (YUHAN CORPORATION, priority 2011, published 2015)

Assays:
Assay type in all cases: cell-based
[1] = target: T1, binding between KRS and AIMP3 (Homo sapiens, UniProt Q15046); test: Yeast Two Hybrid specificity test, LexA-KRS / B42-AIMP3 co-transformed yeast cells; conditions: 1 μL of 20 mM DMSO solution per 200 μL culture; 30° C., 6 days; absorbance 540 nm; non-treated control = 100%
T1 construct: expressed in transfected cells; host or cells: yeast cells (co-transformed)
Procedure: (§1) And also, specificity of the inhibitory activity was evaluated, using the yeast cells cotransformed with the LexA-KRS vector and the B42-AIMP2 vector; and the yeast cells co-transformed with the LexA-KRS vector and the B42-AIMP3 vector, which were respectively prepared according to WO2011/056021. The co-transformation was carried out using the Yeastmaker yeast transformation system2 kit (Clontech), according to the manufacturer's instruction. […] The cultured yeast cells were diluted with the said galactose medium, until the absorbance at 540 nm attains to about 0.15 to 0.2. The diluted culture (200 μL), containing the yeast cells, was added to each well of a 96-well plate. Each test compound was dissolved in dimethyl sulfoxide at a concentration of 20 mM and then the resulting solutions (1 μL) were added to each well. The plate was cultured at 30° C. for 6 days and then the absorbance of each well was measured at 540 nm. The respective yeast cell proliferation rates (%) in the treated samples were calculated in comparison with those of the non-treated control (100%) and the results thereof are shown in Table 1 below.

A549 cells = test: Cell Migration Assay (transwell, laminin); conditions: Homo sapiens, laminin 10 μg/mL in lower well, test compounds 0.39˜100 μM, 6 hours at 37° C.
How it was run: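 A549 cells in serum-free RPMI1640 migrated 6 h at 37 °C through 8.0 μm-pore polycarbonate membranes toward laminin (10 μg/mL), compound (0.39–100 μM) in both chambers. Migrated cells hematoxylin-stained, counted at three fields (×20); IC50 by non-linear regression.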

[2] = target: T2, interaction between the KRS protein and the laminin receptor (LR) (Homo sapiens, UniProt Q15046); test: Yeast Two Hybrid inhibition of the interaction between the KRS protein and the laminin receptor (LR); conditions: 1 μL of 20 mM DMSO solution per 200 μL culture; 30° C., 6 days; absorbance 540 nm; non-treated control = 100%
T2 construct: expressed in transfected cells; host or cells: yeast EGY/SH cells
Procedure: The inhibitory activity against the interaction between the KRS protein and the laminin receptor (LR) was evaluated according to the Yeast Two Hybrid method described in WO2011/056021. According to the disclosures of WO2011/056021, we prepared a vector obtained by cloning the KRS gene in the LexA vector (Clontech) and a vector obtained by cloning the LR gene in the B42 vector (Clontech). The yeast cells, i.e., EGY/SH cells were co-transformed with the LexA-KRS vector and the B42-LR vector. The co-transformation was carried out using the Yeastmaker yeast transformation system2 kit (Clontech), according to the manufacturer's instruction. […] The cultured yeast cells were diluted with the said galactose medium, until the absorbance at 540 nm attains to about 0.15 to 0.2. The diluted culture (200 μL), containing the yeast cells, was added to each well of a 96-well plate. Each test compound was dissolved in dimethyl sulfoxide at a concentration of 20 mM and then the resulting solutions (1 μL) were added to each well. The plate was cultured at 30° C. for 6 days and then the absorbance of the each well was measured at 540 nm.
as §1
When KRS is bound to LR, the trans-activation domain is come close to the DNA-binding domain and the genes for synthesizing essential amino acids are expressed, which leads to normal growth of the transformed yeasts, thereby increasing the absorbance.

[3] = target: T3, binding between KRS and AIMP2 (Homo sapiens, UniProt Q15046); test: Yeast Two Hybrid specificity test, LexA-KRS / B42-AIMP2 co-transformed yeast cells; conditions: 1 μL of 20 mM DMSO solution per 200 μL culture; 30° C., 6 days; absorbance 540 nm; non-treated control = 100%
T3 construct: expressed in transfected cells; host or cells: yeast cells (co-transformed)
Procedure: as §1

Cytotoxicity Study (WST) = conditions: human; A549 cells, serum-free RPMI1640, test compounds 0.39˜100 μM, 5 hours + 2 hours WST, absorbance 450 nm
Procedure: A549 cells (Korean Cell Line Bank) was added to a 96-well plate in a concentration of 2×10^4 cells per well and then a RPMI1640 medium supplemented with 10% fetal bovine serum was added to each well. After culturing 24 hours, the medium was changed with a serum-free RPMI1640 medium and then test compounds (0.39˜100 μM) were treated. After culturing at 37° C. for 5 hours in a CO2 incubator, 10 μL of a WST reagent (Roche) was added to each well, which was then cultured for additional 2 hours. A microplate reader was used to measure the absorbance at 450 nm. From the absorbance values, each IC50 value was calculated by non-linear regression curve fit using the ‘GraphPad Prism” program.
The cytotoxicity study was performed, using the reduction of WST by the NADH produced by the electron transport system of mitochondria. […] Therefore, the compounds of the present invention have therapeutic activity against a disease associated with cancer cell metastasis through (i) selective inhibition against the binding between KRS and LR and (ii) inhibition of cell migration, rather than non-specific cytotoxicity.

T1 sequence (Q15046 whole entry): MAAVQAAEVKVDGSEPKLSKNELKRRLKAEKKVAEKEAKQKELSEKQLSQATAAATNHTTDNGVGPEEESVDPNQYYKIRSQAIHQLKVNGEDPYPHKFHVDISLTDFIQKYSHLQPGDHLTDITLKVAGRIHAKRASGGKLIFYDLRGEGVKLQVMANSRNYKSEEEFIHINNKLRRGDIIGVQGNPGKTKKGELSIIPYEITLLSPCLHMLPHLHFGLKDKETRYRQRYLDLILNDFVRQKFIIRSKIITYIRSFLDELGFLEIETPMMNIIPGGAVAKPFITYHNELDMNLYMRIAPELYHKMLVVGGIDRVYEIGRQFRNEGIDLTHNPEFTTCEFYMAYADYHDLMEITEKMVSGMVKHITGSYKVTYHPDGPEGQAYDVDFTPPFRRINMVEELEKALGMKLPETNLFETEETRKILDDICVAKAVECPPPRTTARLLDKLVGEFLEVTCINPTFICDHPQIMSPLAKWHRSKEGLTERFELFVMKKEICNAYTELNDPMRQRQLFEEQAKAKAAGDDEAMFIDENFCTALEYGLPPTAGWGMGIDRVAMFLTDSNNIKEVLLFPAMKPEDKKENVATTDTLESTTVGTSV
T2 sequence (Q15046 whole entry): as above
T3 sequence (Q15046 whole entry): as above

Compound | Yeast cell proliferation rates KRS-AIMP3 (%) [1] [%] | IC50 (A549 cells) [µM] | Yeast cell proliferation rates KRS-LR (%) [2] [%] | Yeast cell proliferation rates KRS-AIMP2 (%) [3] [%] | IC50 at 5 h (Cytotoxicity Study (WST)) [µM]
CC(C(=O)O)n1c(=NC(=O)c2cccc(Cl)c2)sc2cc(C(F)(F)F)ccc21 (centres unmarked) [Example 172, 2-(2-((3-chlorobenzoyl)imino)-6-(trifluoromethyl)benzo[d]thiazol-3(2H)-yl)propionic acid] | 104.1 | 37.9 | 36.3 | 90.0 | 
CCC(C(=O)O)n1c(=NC(=O)c2cccc(Cl)c2)sc2c(F)c(F)ccc21 (centres unmarked) [Example 338, 2-(2-((3-chlorobenzoyl)imino)-6,7-difluorobenzo[d]thiazol-3(2H)-yl)butanoic acid] | 107.2 | 81.3 | 12.6 | 104.0 | 
CCC(C(=O)O)n1c(=NC(=O)c2cccc(Cl)c2)sc2c(F)c(Cl)ccc21 (centres unmarked) [Example 386, 2-(6-chloro-2-((3-chlorobenzoyl)imino)-7-fluorobenzo[d]thiazol-3(2H)-yl)butanoic acid] | 106.3 | 8.3 | 11.2 | 103.9 | 
CCC(C(=O)O)n1c(=NC(=O)c2cccc(C(F)(F)F)c2)sc2ccccc21 (centres unmarked) [Example 142, 2-[2-(3-(trifluoromethyl)benzoylimino)benzo[d]thiazol-3(2H)-yl]butanoic acid] | 106.5 | 14.7 | 39.4 | 95.0 | 
CCC(C(=O)O)n1c(=NC(=O)c2cccc(Cl)c2)sc2c(Cl)cccc21 (centres unmarked) [Example 310, 2-(7-chloro-2-((3-chlorobenzoyl)imino)benzo[d]thiazol-3(2H)-yl)butanoic acid] | 105.4 | 6.5 | 15.9 | 100.2 | 
O=C(O)Cn1c(=NC(=O)c2cccc(Cl)c2)sc2ccc(Cl)cc21 [Example 312, 2-(5-chloro-2-(3-chlorobenzoylimino)benzo[d]thiazol-3(2H)-yl)acetic acid] | 99.0 | 36 | 14.6 | 89.6 | 
CCC(C(=O)O)n1c(=NC(=O)c2ccccc2)sc2ccccc21 (centres unmarked) [Example 136, 2-[2-(benzoylimino)benzo[d]thiazol-3(2H)-yl]butanoic acid] |  |  |  |  | 281
CCC(C(=O)O)n1c(=NC(=O)c2ccc(C)cc2)sc2cc(C(F)(F)F)ccc21 (centres unmarked) [Example 155, 2-[2-(4-methylbenzoylimino)-6-(trifluoromethyl)benzo[d]thiazol-3(2H)-yl]butanoic acid] | 100.0 | 16.7 | 29.7 | 102.4 | 
CCC(C(=O)O)n1c(=NC(=O)c2ccc(C)cc2)sc2c(F)cccc21 (centres unmarked) [Example 93, 2-[7-fluoro-2-(4-methylbenzoylimino)benzo[d]thiazol-3(2H)-yl]butanoic acid] | 102.7 | 17.6 | 33.2 | 88.5 | 
Cc1ccc(C(=O)N=c2sc3c(Cl)cccc3n2C(C)C(=O)O)cc1 (centres unmarked) [Example 109, 2-[7-chloro-2-(4-methylbenzoylimino)benzo[d]thiazol-3(2H)-yl]propionic acid] | 98.2 | 57 | 30.2 | 102.0 | 
Cc1ccc2c(sc(=NC(=O)c3cccc(Cl)c3)n2C(C)C(=O)O)c1F (centres unmarked) [Example 424, 2-(2-((3-chlorobenzoyl)imino)-7-fluoro-6-methylbenzo[d]thiazol-3(2H)-yl)propionic acid] | 104.6 | 78 | 15.6 | 99.9 | 
CCC(C(=O)O)n1c(=NC(=O)c2cccc(Cl)c2)sc2cc(C)ccc21 (centres unmarked) [Example 59, 2-{2-[(3-chlorobenzoyl)imino]-6-methylbenzo[d]thiazol-3(2H)-yl}butanoic acid] | 80.8 | 29.6 | 31.7 | 97.7 | 
CC(C(=O)O)n1c(=NC(=O)c2cccc(C(F)(F)F)c2)sc2ccccc21 (centres unmarked) [Example 133, 2-{2-[3-(trifluoromethyl)benzoylimino]benzo[d]thiazol-3(2H)-yl}propionic acid] | 92.8 | 11.4 | 33.2 | 82.1 | 
CC(C(=O)O)n1c(=NC(=O)c2cccc(Cl)c2)sc2c(F)c(Cl)ccc21 (centres unmarked) [Example 385, 2-(6-chloro-2-((3-chlorobenzoyl)imino)-7-fluorobenzo[d]thiazol-3(2H)-yl)propionic acid] | 99.1 | 25.4 | 11.6 | 108.2 | 
CCOc1ccc2c(c1)sc(=NC(=O)c1cccc(Cl)c1)n2C(C)C(=O)O (centres unmarked) [Example 55, 2-{2-[(3-chlorobenzoyl)imino]-6-ethoxybenzo[d]thiazol-3(2H)-yl}propionic acid] | 105.3 | 22 | 41.4 | 106.0 | 
CCC(C(=O)O)n1c(=NC(=O)c2ccc(C(F)(F)F)cc2)sc2ccccc21 (centres unmarked) [Example 64, 2-{2-[4-(trifluoromethyl)benzoylimino]benzo[d]thiazol-3(2H)-yl}butanoic acid] | 104.1 | 20.1 | 28.8 | 99.2 | 
CCC(C(=O)O)n1c(=NC(=O)c2cccc(Cl)c2)sc2ccccc21 (centres unmarked) [Example 139, 2-[2-(3-chlorobenzoylimino)benzo[d]thiazol-3(2H)-yl]butanoic acid] | 102.1 | 18.9 | 31.5 | 79.4 | 
